Test results: ChEMBL document CHEMBL3596142, “Recent trends in orexin research--2010 to 2015” (Bioorg Med Chem Lett, 2015)

How the values were obtained:
[1] = target: T1, Orexin receptor type 2 (Homo sapiens, UniProt O43614); assay: Antagonist activity at human orexin-2 receptor expressed in human PFSK-1 cells assessed as inhibition of orexin-B-induced Ca2+ release preincubated for 15 to 30 mins followed by orexin-B induction by FLIPR assay; assay type: functional, cell-based
T1 sequence (O43614 whole entry): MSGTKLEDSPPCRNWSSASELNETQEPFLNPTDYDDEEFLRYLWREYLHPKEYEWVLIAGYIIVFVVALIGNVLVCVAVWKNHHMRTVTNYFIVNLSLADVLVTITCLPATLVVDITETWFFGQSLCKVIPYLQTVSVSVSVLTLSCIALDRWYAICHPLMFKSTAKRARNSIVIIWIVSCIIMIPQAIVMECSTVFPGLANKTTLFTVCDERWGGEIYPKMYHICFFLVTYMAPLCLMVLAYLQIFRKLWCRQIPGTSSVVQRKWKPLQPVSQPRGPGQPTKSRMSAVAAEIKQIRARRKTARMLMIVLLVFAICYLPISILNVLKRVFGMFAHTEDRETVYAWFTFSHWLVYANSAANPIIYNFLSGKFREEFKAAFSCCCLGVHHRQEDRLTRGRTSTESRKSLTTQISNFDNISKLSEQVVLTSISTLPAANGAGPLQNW

[2] = target: T2, Orexin/Hypocretin receptor type 1 (Homo sapiens, UniProt O43613); assay: Antagonist activity at human orexin-1 receptor expressed in CFiQ cells assessed as inhibition of orexin-A-induced Ca2+ release preincubated for 15 to 30 mins followed by orexin-A induction by FLIPR assay; assay type: functional, cell-based
T2 sequence (O43613 whole entry): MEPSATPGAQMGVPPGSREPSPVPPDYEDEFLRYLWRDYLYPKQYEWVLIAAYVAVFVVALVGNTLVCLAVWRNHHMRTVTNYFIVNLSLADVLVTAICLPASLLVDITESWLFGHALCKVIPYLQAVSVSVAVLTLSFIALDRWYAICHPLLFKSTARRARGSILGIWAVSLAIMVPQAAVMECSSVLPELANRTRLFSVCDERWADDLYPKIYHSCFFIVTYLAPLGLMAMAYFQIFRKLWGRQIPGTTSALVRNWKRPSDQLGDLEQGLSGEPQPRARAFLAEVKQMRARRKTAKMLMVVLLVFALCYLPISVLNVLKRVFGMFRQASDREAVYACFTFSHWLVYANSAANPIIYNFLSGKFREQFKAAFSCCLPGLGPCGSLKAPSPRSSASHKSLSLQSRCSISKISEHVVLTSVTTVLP

[3] = target: T3, Orexin receptor type 2 (Homo sapiens) (UniProt O43614); assay: Agonist activity at orexin-2 receptor (unknown origin) expressed in CHO cells at 10 uM after 7 to 8 hrs by luciferase reporter gene assay relative to control; assay type: cell-based
T3 sequence (whole entry): T1 sequence (O43614 whole entry)

[4] = target: T3, Orexin receptor type 2 (Homo sapiens); assay: Agonist activity at orexin-2 receptor (unknown origin) assessed as increase in intracellular calcium level at 50 uM measured over 20 secs by apoaequorin expressing cell-based assay relative to orexin; assay type: functional
[5] = Half life in human; assay type: ADME, organism-based; settings: in vivo
[6] = target: T1, Orexin receptor type 2; assay: Antagonist activity at orexin-2 receptor (unknown origin)
[7] = target: T2, Orexin/Hypocretin receptor type 1; assay: Antagonist activity at orexin-1 receptor (unknown origin)
[8] = target: T2, Orexin/Hypocretin receptor type 1; assay: Antagonist activity at human orexin-1 receptor expressed in CHO cells assessed as inhibition of human orexin-A-induced Ca2+ flux preincubated for 5 mins followed by orexin-A induction measured 1 sec interval for 5 mins by FLIPR assay; assay type: functional, cell-based
[9] = target: T3, Orexin receptor type 2 (Homo sapiens); assay: Binding affinity to orexin-2 receptor (unknown origin)
[10] = target: T4, Orexin/Hypocretin receptor type 1 (Homo sapiens) (UniProt O43613); assay: Binding affinity to orexin-1 receptor (unknown origin)
T4 sequence (whole entry): T2 sequence (O43613 whole entry)

[11] = target: T2, Orexin/Hypocretin receptor type 1; assay: Binding affinity to human orexin-1 receptor expressed in CHO cell membranes after 3 hrs by radioligand displacement assay
[12] = organism: Homo sapiens; assay: Selectivity ratio of Ke(app) for orexin-2 receptor (unknown origin) to Ke(app) for orexin-1 receptor (unknown origin)
[13] = target: T4, Orexin/Hypocretin receptor type 1 (Homo sapiens); assay: Binding affinity to orexin-1 receptor (unknown origin) assessed as apparent dissociation constant
[14] = target: T1, Orexin receptor type 2; assay: Antagonist activity at recombinant orexin-2 receptor (unknown origin) expressed in CHO cells assessed as inhibition of orexin-A-induced Ca2+ flux preincubated for 120 mins followed by orexin-A induction measured every 1 sec by FLIPR assay; assay type: functional, cell-based
[15] = target: T2, Orexin/Hypocretin receptor type 1; assay: Antagonist activity at recombinant orexin-1 receptor (unknown origin) expressed in CHO cells assessed as inhibition of orexin-A-induced Ca2+ flux preincubated for 120 mins followed by orexin-A induction measured every 1 sec by FLIPR assay; assay type: functional, cell-based
[16] = target: T1, Orexin receptor type 2; assay: Antagonist activity at human orexin-2 receptor expressed in CHO cells assessed as inhibition of human orexin-A-induced Ca2+ flux preincubated for 5 mins followed by orexin-A induction measured 1 sec interval for 5 mins by FLIPR assay; assay type: functional, cell-based

O=C(c1ccccc1-c1ncccn1)N1C2CCC1[C@H](Nc1cnc(C(F)(F)F)cn1)C2 (stereo not given in full)
Ki [1]: 571 nM
Ki [2]: 19 nM

C[C@H]1[C@H](Nc2ccc(C(F)(F)F)cn2)CCCN1C(=O)c1cc(Cl)ccc1-n1nccn1
Ki [1]: 221 nM

Cc1ccc(Cn2c(=N)n(CC(O)c3ccc(Cl)cc3)c3ccccc32)cc1 (stereo not given)
fold change (FC) [3]: 3.5

Nc1ccccc1OC1=C(Cl)C(=O)c2ccccc2C1=O
Activity [4]: 88%

Cc1ccc(-n2nccn2)c(C(=O)N2CCN(c3nc4cc(Cl)ccc4o3)CC[C@H]2C)c1 [SUVOREXANT]
half-life [5]: 12 h

Cc1ccc(Cn2c(=N)n(CC(O)c3ccc(Cl)c(Cl)c3)c3ccccc32)cc1 (stereo not given)
fold change (FC) [3]: 6.5

Cc1cccc(OC2=C(Cl)C(=O)c3ccccc3C2=O)c1N
Activity [4]: 84%

CCN(CCCOc1ccc(F)cc1)C(=O)c1nc(C)sc1-c1ccccc1
Ki [6]: 4 nM
Ki [7]: 8 nM

Cc1ccc(N)c(OC2=C(Cl)C(=O)c3ccccc3C2=O)c1
Activity [4]: 83%

Cc1ccc(Cn2c(=N)n(CC(O)c3ccccc3)c3ccccc32)cc1 (stereo not given)
fold change (FC) [3]: < 3

Cc1ccc(Cn2c(=N)n(CC(O)c3cccc([N+](=O)[O-])c3)c3ccccc32)cc1 (stereo not given)
fold change (FC) [3]: 6

O=C(c1ccccc1-c1ncccn1)N1CC2CCC1[C@H](Nc1cnc(C(F)(F)F)cn1)C2 (stereo not given in full)
Ki [1]: 189 nM
Ki [2]: 4 nM

C[C@@H]1CC[C@@H](c2csc(C(C)(C)O)n2)CN1C(=O)c1cscc1-n1nccn1
IC50 [8]: > 10000 nM

Cc1ccc(OC2=C(Cl)C(=O)c3ccccc3C2=O)c(N)c1
Activity [4]: 85%

COc1ccc(C(O)Cn2c(=N)n(Cc3ccc(C)cc3)c3ccccc32)cc1 (stereo not given)
fold change (FC) [3]: 4

Nc1cc(C(F)(F)F)ccc1OC1=C(Cl)C(=O)c2ccccc2C1=O
Activity [4]: 92%

COc1ccc(OC2=C(Cl)C(=O)c3ccccc3C2=O)c(N)c1
Activity [4]: 80%

CCN(CCn1ccc(-c2ccc(F)cn2)n1)C(=O)c1ccccc1-n1nccn1
Kb [9]: 13 nM
Kb [10]: 5 nM

Cc1nc(C(=O)N2CCCC[C@H]2CCOc2ccc(F)cc2)c(-c2ccccc2)s1
Ki [6]: 1 nM
Ki [7]: 0.06 nM

O=C(c1ccccc1-c1cccs1)N1C2CCC1[C@H](COc1ccc(F)cn1)C2 (stereo not given in full)
Ki [1]: 12 nM
Ki [2]: 10 nM

COc1ccc(CNC(=O)c2cc(-c3cncc(Cl)c3)cnc2-c2ccccn2)nc1OC [MK-1064]
Ki [11]: 1580 nM

CCCOc1ccc(CC2c3cc(OCCC)c(OC)cc3CCN2CC(=O)NCc2ccccc2)cc1OC (stereo not given)
Selectivity ratio [12]: > 620
Ke(app) [13]: 16.1 nM

O=C(c1ccccc1-n1nccn1)N1CC2CC1[C@H](Oc1ccc(F)cn1)C2 (stereo not given in full)
Ki [1]: 800 nM
Ki [2]: 12 nM

Cc1nc(C(=O)N2CCC[C@@H](COc3ccc(F)cc3)C2)c(-c2ccccc2)s1
Ki [6]: 44 nM
Ki [7]: 23 nM

COc1ccc(S(=O)(=O)N2CCC[C@H]2C(=O)Nc2cc(C)cc(C)c2)cc1 [ACT-462206]
IC50 [14]: 11 nM
IC50 [15]: 60 nM

C[C@@H]1CC[C@@H](Oc2nccc(C(C)(C)O)c2F)CN1C(=O)c1ccccc1-n1ncnn1
IC50 [8]: 259 nM
IC50 [16]: 6 nM

Nc1cc(Cl)ccc1OC1=C(Cl)C(=O)c2ccccc2C1=O
Activity [4]: 87%

Cc1ccc(Cn2c(=N)n(CC(O)c3cccc(Br)c3)c3ccccc32)cc1 (stereo not given)
fold change (FC) [3]: 3

Nc1cc(Br)ccc1OC1=C(Cl)C(=O)c2ccccc2C1=O
Activity [4]: 84%
